US9717222B2, “Taste independent brain nutrient sensor that mediates hunger” (New York University, priority 2014, dated 2017)
Entries after “also recorded” stand apart in the source; their conditions may differ.

Tests used:
Drosophila melanogaster = assay: Two-choice feeding assay (food preference); assay type: in vivo; conditions: for food choice: 200 mM L-glucose+phlorizin versus 50 mM D-glucose+phlorizin: 18 hours food deprivation (FIG. 4); for food choice: glucose mixed with phlorizin versus plain agar: 100 mM glucose
Procedure: Feeding assays were performed as previously described^6 using 50 flies per two-choice arena. Briefly, ˜50 4-8 days old male flies were starved in an empty vial with wet Kim wipe for 5 or 18 hours, and then given a choice between two sugars, or a sugar and plain agar for 2 hours. Food preference was determined as percent preference index (PI %) by scoring the abdomen color of each fly: % PI=(#eaten food1+0.5×#eaten both)−(#eaten food2+0.5×#eaten both)]/(total #flies eaten) All sugars, except for L-glucose (Carbosynth), were from Sigma. For FIG. 1c, 10 mM phlorizin (Sigma) was added to warm agar with or without sugar. For the experiments in the dark, individual plates were wrapped in aluminum foil and then placed in a dark drawer while tested flies were making a choice between the two substrates. For the neural silencing experiments, flies bearing UAS-Kir2.1, Ptubulin-GAL80^ts, and a GAL4 driver were treated as described^17. These flies were raised at 18° C., incubated at 29° C. for 40 hours, starved at 29° C. for next 18 hrs and then tested in the two-choice assay at room temperature. For a negative control, the flies were raised and starved at 18° C., and tested at room temperature. Because metabolism is slower at 18° C. than at 25-29° C., the flies at 18° C. needed to be starved for a longer period. Thus, we determined that the 18 hours of starvation at 25-29° C. is equivalent to the 50-60 hours of starvation at 18° C. Also, see FIG. 11.

hemolymph glycemia = assay: Prandial rise of hemolymph glycemia after glucose feeding with or without phlorizin; assay type: in vivo, Drosophila melanogaster; conditions: 18-hour starved flies fed 100 mM glucose with 10 mM phlorizin for 20 minutes (FIG. 1b)
Procedure: Glycogen and glycemia were measured as previously described^6. For the prandial rise of hemolymph glycemia, flies were starved for 18 hours, and then fed with 100 mM glucose (with or without 10 mM phlorizin) for 15-20 minutes. Their hemolymph was immediately collected and measured.

Question: With O=C(CCc1ccc(O)cc1)c1c(O)cc(O)cc1O[C@@H]1O[C@H](CO)[C@@H](O)[C@H](O)[C@H]1O [Phlorizin] as the compound, how does the “food choice: 200 mM L-glucose+phlorizin versus 50 mM D-glucose+phlorizin” value (Drosophila melanogaster; control flies) read?
Answer: chose the more concentrated (sweeter) L-glucose; also recorded: chose the sweeter L-glucose

Question: What about the “food choice: glucose mixed with phlorizin versus plain agar” value (Drosophila melanogaster; control poxnΔM22-B5;SuperA158, 18 h food deprived, 10 mM phlorizin (FIG. 1c)) of the same compound?
Answer: can distinguish glucose mixed with phlorizin from agar

Question: And the “food choice: 200 mM L-glucose+phlorizin versus 50 mM D-glucose+phlorizin” value (Drosophila melanogaster; taste-blind (poxnΔM22-B5) and sugar-blind (Gr5a;Gr64a) mutants)?
Answer: failed to discriminate between Lglucose+phlorizin and D-glucose+phlorizin; also recorded: showed equal preference for these two enantiomers

Question: What about the “food choice: fructose mixed with phlorizin versus plain agar” value (Drosophila melanogaster; taste-blind poxnΔM22-B5, 18 h food deprived, 100 mM fructose, 10 mM phlorizin (FIG. 1c)) of the same compound?
Answer: able to detect the nutritional value of fructose mixed with phlorizin

Question: And the “food choice: glucose mixed with phlorizin versus plain agar” value (Drosophila melanogaster; taste-blind poxnΔM22-B5, 18 h food deprived, 10 mM phlorizin (FIG. 1c))?
Answer: failed to consume glucose mixed with phlorizin

Question: What about the “prandial rise in hemolymph glycemia” value (hemolymph glycemia) of the same compound?
Answer: preventing a prandial rise in glycemia
